# Measurements reported in patent US9701676B2, “Pro-neurogenic compounds” (Board of Regents of The University of Texas System, priority 2012, dated 2017).
# Tested on: proliferating neural precursor cells in the hippocampus (subgranular layer of the dentate gyrus)
# Assay: standard in vivo hippocampal neurogenesis assay (BrdU labelling, week-long intracranial mini-pump infusion)
# Parameters: species or system mouse (C57/B6)
# Conditions: 10 μM concentration, seven days of infusion at 0.5 μL/hour, daily IP BrdU; four 12 week old adult male C57/B6 mice; vehicle 14.5
# Description: Compounds were administered at a concentration of 10 μM for each molecule. After seven days of infusion at a constant rate of 0.5 μL/hour, a total of 84 μL of volume will have left the pump (0.00084 μMoles) and entered the cerebrospinal fluid. The average volume of a brain from a 12 week old male, C57/B6 mouse in the study is 500 mm^3. […] Under these conditions, at the end of one week of infusion each compound would be present at 1.7 μMolar concentration. Since the actual amount of chemical compound in the brain is likely to be only a fraction of this predicted level, it is reasonable to estimate that compounds were administered at mid to low-nanomolar concentrations.
# During compound infusion, animals were intraperitoneally (IP) injected daily with the thymidine analog, bromodeoxyuridine (BrdU), as a means of scoring the birth and survival of proliferating neural precursor cells in the hippocampus. Because both social interaction and voluntary exercise are known to stimulate hippocampal neurogenesis, mice were housed individually without access to running wheels throughout the screening period. Following the week-long period of compound administration, animals were perfused and sacrificed. Dissected brain tissue was fixed, embedded, sectioned, stained with antibodies to BrdU, and evaluated by light microcopy as a means of quantifying neurogenesis and survival of newborn neural precursor cells localized to the subgranular layer of the dentate gyms on the brain hemisphere contralateral to the side of mini-pump cannulation. Every fifth section throughout the entire rostral-caudal extent of the hippocampus was analyzed, and the total number of BrdU+ cells was normalized against the measured volume of the dentate gyms.
# Intracranial infusions of either fibroblast growth factor 2 (FGF-2) or artificial cerebral spinal fluid (aCSF) vehicle via the same, week-long protocol were employed as positive and negative controls.
# Compounds were evaluated for pro-neurogenic efficacy/neuroprotection in a standard in vivo hippocampal neurogenesis assay at 10 μM concentration in four 12 week old adult male C57/B16 mice.
compound,measurement,value
"COc1cccc(N(CC(O)Cn2c3ccc(Br)cc3c3cc(Br)ccc32)S(=O)(=O)c2ccccc2)c1 (stereo not shown) [P7C3-S252, N-(3-(3,6-dibromo-9H-carbazol-9-yl)-2-hydroxypropyl)-N-(3-methoxyphenyl)benzenesulfonamide]",(×10^−06) BrdU+ cells/mm^3 dentate gyrus,33.2 (×10^−06) BrdU+ cells/mm^3
